Experimental data published in patent US8063048B2, “Acetylenyl-pyrazolo-pyrimidine derivatives” (Hoffmann-La Roche Inc., priority 2005, dated 2011).

Structure (SMILES)	melting point
Cc1cc(-c2cc(C(F)(F)F)n3ncc(C#Cc4ccc(S(=O)(=O)NC(C)(C)C)s4)c3n2)ccc1Cl [Example 115, 5-[5-(4-Chloro-3-methyl-phenyl)-7-trifluoromethyl-pyrazolo[1,5-a]pyrimidin-3-ylethynyl]-thiophene-2-sulfonic acid tert-butylamide]	244 °C
CC(CO)NS(=O)(=O)c1cncc(C#Cc2cnn3c(C(F)(F)F)cc(-c4ccc(C(F)(F)F)cc4)nc23)c1 (stereo not drawn) [Example 28, 5-[7-Trifluoromethyl-5-(4-trifluoromethyl-phenyl)-pyrazolo[1,5-a]pyrimidin-3-ylethynyl]-pyridine-3-sulfonic acid (2-hydroxy-1-methyl-ethyl)-amide]	225 to 226 °C
NS(=O)(=O)c1ccc(C#Cc2cnn3c(C(F)F)cc(-c4cccc(C(F)(F)F)c4)nc23)s1 [Example 160, 5-[7-Difluoromethyl-5-(3-trifluoromethyl-phenyl)-pyrazolo[1,5-a]pyrimidin-3-ylethynyl]-thiophene-2-sulfonic acid amide]	225 °C
CC(CO)(CO)NS(=O)(=O)c1cncc(C#Cc2cnn3c(C(F)F)cc(-c4ccc(C(F)(F)F)cc4)nc23)c1 [Example 26, 5-[7-Difluoromethyl-5-(4-trifluoromethyl-phenyl)-pyrazolo[1,5-a]pyrimidin-3-ylethynyl]-pyridine-3-sulfonic acid (2-hydroxy-1-hydroxymethyl-1-methyl-ethyl)-amide]	204 to 206 °C
CN1CCN(S(=O)(=O)c2ccc(C#Cc3cnn4c(C(F)F)cc(-c5cccc(C(F)(F)F)c5)nc34)s2)CC1 [Example 248, 7-Difluoromethyl-3-[5-(4-methyl-piperazine-1-sulfonyl)-thiophen-2-ylethynyl]-5-(3-trifluoromethyl-phenyl)-pyrazolo[1,5-a]pyrimidine]	214 °C
O=S(=O)(NCc1ccncc1)c1ccc(C#Cc2cnn3c(C(F)(F)F)cc(-c4ccc(C(F)(F)F)cc4)nc23)s1 [Example 272, 5-[7-Trifluoromethyl-5-(4-trifluoromethyl-phenyl)-pyrazolo[1,5-a]pyrimidin-3-ylethynyl]-thiophene-2-sulfonic acid (pyridin-4-ylmethyl)-amide]	170 °C
Cc1cc(-c2cc(C(F)F)n3ncc(C#Cc4cccc(S(N)(=O)=O)c4)c3n2)ccc1Cl [Example 168, 3-[5-(4-Chloro-3-methyl-phenyl)-7-difluoromethyl-pyrazolo[1,5-a]pyrimidin-3-ylethynyl]-benzenesulfonamide]	215 °C

The next lines start with the values.

melting point	Structure (SMILES)
290 to 293 °C	NS(=O)(=O)c1cccc(C#Cc2cnn3c(C(F)(F)F)cc(-c4ccc(Cl)cc4)nc23)c1 [Example 99, 3-[5-(4-Chloro-phenyl)-7-trifluoromethyl-pyrazolo[1,5-a]pyrimidin-3-ylethynyl]-benzenesulfonamide]
254 to 255 °C	NS(=O)(=O)c1cc(C#Cc2cnn3c(C(F)(F)F)cc(-c4ccc(C(F)(F)F)cc4)nc23)ccc1F [Example 50, 2-Fluoro-5-[7-trifluoromethyl-5-(4-trifluoromethyl-phenyl)-pyrazolo[1,5-a]pyrimidin-3-ylethynyl]-benzenesulfonamide]
195 °C	Cc1ccc(C#Cc2cnn3c(C(F)(F)F)cc(-c4ccc(C(F)(F)F)cc4)nc23)cn1 [Example 9, 3-(6-Methyl-pyridin-3-ylethynyl)-7-trifluoromethyl-5-(4-trifluoromethyl-phenyl)-pyrazolo[1,5-a]pyrimidine]
282 °C	NS(=O)(=O)c1ccc(C#Cc2ncn3c(C(F)F)cc(-c4ccc(C(F)(F)F)cc4)nc23)cc1 [Example 276, 4-[4-Difluoromethyl-2-(4-trifluoromethyl-phenyl)-imidazo[1,5-a]pyrimidin-8-ylethynyl]-benzenesulfonamide]
214 °C	CS(=O)(=O)c1cccc(C#Cc2cnn3c(C(F)(F)F)cc(-c4ccc(C(F)(F)F)cc4)nc23)c1 [Example 40, 3-(3-Methanesulfonyl-phenylethynyl)-7-trifluoromethyl-5-(4-trifluoromethyl-phenyl)-pyrazolo[1,5-a]pyrimidine]
